Measured values as given in PubChem BioAssay (NCI).
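Cells were grown in 96-well plates and exposed to each compound for 48 hours at five concentrations; endpoints were interpolated linearly between bracketing concentrations, or set to the highest concentration if not reached. TGI: concentration producing complete growth inhibition.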

Tests used:
Experiment in all cases: NCI tumour cell line growth inhibition, 48 h
MDA-N = system: MDA-N
MALME-3M melanoma = system: MALME-3M melanoma
A549 NSCLC = system: A549 NSCLC
K-562 leukemia = system: K-562 leukemia
M14 melanoma = system: M14 melanoma
SNB-19 CNS = system: SNB-19 CNS
IGROV1 ovarian = system: IGROV1 ovarian
786-0 renal = system: 786-0 renal
CCRF-CEM leukemia = system: CCRF-CEM leukemia
SK-OV-3 ovarian = system: SK-OV-3 ovarian
MDA-MB-231 breast = system: MDA-MB-231 breast
LOX IMVI melanoma = system: LOX IMVI melanoma
OVCAR-4 ovarian = system: OVCAR-4 ovarian
SF-268 CNS = system: SF-268 CNS
HS 578T breast = system: HS 578T breast
TK-10 renal = system: TK-10 renal
HL-60(TB) leukemia = system: HL-60(TB) leukemia
HCC-2998 colon = system: HCC-2998 colon
BT-549 breast = system: BT-549 breast

Compound | TGI (MDA-N) [µM] | TGI (MALME-3M melanoma) [µM] | TGI (A549 NSCLC) [µM] | TGI (K-562 leukemia) [µM] | TGI (M14 melanoma) [µM] | TGI (SNB-19 CNS) [µM] | TGI (IGROV1 ovarian) [µM] | TGI (786-0 renal) [µM] | TGI (CCRF-CEM leukemia) [µM] | TGI (SK-OV-3 ovarian) [µM] | TGI (MDA-MB-231 breast) [µM] | TGI (LOX IMVI melanoma) [µM] | TGI (OVCAR-4 ovarian) [µM] | TGI (SF-268 CNS) [µM] | TGI (HS 578T breast) [µM] | TGI (TK-10 renal) [µM] | TGI (HL-60(TB) leukemia) [µM] | TGI (HCC-2998 colon) [µM] | TGI (BT-549 breast) [µM]
COc1cc2oc(=O)cc(C)c2c(OC)c1O | > 100 | > 100 | > 100 | > 100 | > 100 | > 100 | > 100 | > 100 | > 100 | > 100 | > 100 | > 100 | > 100 | > 100 | 65 | > 100 |  |  | 
Cc1ccc(S(=O)(=O)NC(=O)Nc2cccc(S(N)(=O)=O)c2)cc1 |  | > 100 | > 100 | > 100 | > 100 | > 100 | > 100 | > 100 |  | > 100 | > 100 | > 100 | > 100 | > 100 | > 100 | > 100 | > 100 | > 100 | 
COC(=O)[C@H](Cc1ccccc1)NC(=O)N(CCC#N)CCCCN(CCC#N)C(=O)N[C@@H](Cc1ccccc1)C(=O)OC | > 100 | > 100 | > 100 | > 100 | > 100 | > 100 |  | > 100 |  | > 100 | > 100 | > 100 | > 100 | > 100 | > 100 | > 100 |  | > 100 | > 100
O=C(c1cccc2ccccc12)C1S(=O)(=O)OCCOS1(=O)=O | > 100 | > 100 | > 100 | > 100 | > 100 | > 100 |  | > 100 | > 100 |  | > 100 |  | > 100 |  |  | > 100 | > 100 | > 100 | > 100
COc1ccc2c(c1)c1c(n2CCN2CCOCC2)-c2cccc(OC)c2CC1 | > 100 | 66.3 | > 100 | > 100 | > 100 |  | > 100 | > 100 | 56.8 | > 100 | > 100 |  | > 100 | > 100 | > 100 | > 100 |  | 63.4 | > 100
COCCOC(=O)NCn1cc(-c2ccccc2)nn1 |  | > 100 | > 100 | > 100 | > 100 | > 100 | > 100 | > 100 | > 100 |  | > 100 | > 100 | > 100 |  |  | > 100 | > 100 | > 100 | > 100
Cc1c[nH]c(C(=O)O)c1-c1cccn1-c1ccc(Cl)cc1[N+](=O)[O-] | > 100 |  | > 100 | > 100 | > 100 |  | > 100 | > 100 | > 100 | > 100 | > 100 | > 100 | > 100 | > 100 | > 100 | > 100 |  | > 100 | > 100
